Experimental data taken from patent publication EP0099766A1, “1-3-Dihydro 4-(1-hydroxy-2-amino-ethyl)-2H-indol-2-one derivatives, their salts, process for their preparation, their use as medicines and compositions containing them” (ROUSSEL-UCLAF, priority 1982, dated 1984).

Assays:
[1] = test system: rats mâles Sprague-Dawley; test: Anti-ulcer activity: Shay method modified by Guth (pylorus ligation plus aspirin/HCl gastric lesions); type: in vivo; conditions: dose 0,4 mg/kg per os one hour before pylorus ligation; aspirin 200 mg/kg per os; Sprague-Dawley rat; mean ulcer score
Experimental: L'essai est effectué selon la méthode de Shay modifiée par GUTH (GUTH, P.H. et coll, Topical aspirin plus HCl gastric lesions in the rat. Gastroenterology 1979,76, 88-93.) Des rats mâles Sprague-Dawley d'un poids voisin de 250 g, à jeun depuis 48 heures sauf boisson, ont été utilisés. On pratique sous légère anesthésie à l'halothane, la ligature du pylore et une . heure plus tard, on administre l'aspirine per os à la dose de 200 mg/kg, en suspension dans la carboxyméthylcellulose à 0,25% renfermant 15% d'acide chlorhydrique N. Deux heures plus tard, on sacrifie les animaux, prélève et examine les estomacs. Chaque lésion ulcéreuse est cotée de la façon suivante :
La somme des cotations est calculée pour chaque estomac, et le score moyen est établi.pour chaque lot.
Les substances à étudier sont administrées per os une heure avant la ligature.

souris = conditions: mouse, in vivo, po, 11520 min
Description: On a évalué les doses létales DLO des différents composés testés après administration par voie orale chez la souris.
On appelle DLO la dose maximale ne provoquant aucune mortalité en 8 jours.

[2] = test system: oédème plantaire provoqué par la carraghénine chez le rat; test: Anti-inflammatory activity: carrageenan-induced plantar oedema; type: in vivo; conditions: dose 0,4 mg/kg oral, given simultaneously with carrageenan; rat paw volume versus controls
Description: L'activité anti-inflammatoire a été déterminée sur le test de l'oédème plantaire provoqué par la carraghénine chez le rat.
On administre, à des rats mâles pesant de 130 à 150 g, 0,05 cm3 d'une suspension stérile à 1% de carraghénine dans l'articulation tibio-tarsienne d'une patte postérieure.
Simultanément, on administre le produit à étudier dans une suspension de carboxyméthylcellulose à 0,25% et de Tween à 0,02% par voie orale.
Le volume de la patte est mesuré avant l'administration, puis 2 heures, 4 heures, 6 heures, 8 heures et 24 heures après.
L'intensité de l'inflammation est maxima 4 à 6 heures après l'injection de carraghénine. La différence du volume des pattes des animaux traités et des témoins met en évidence l'action anti inflammatoire du médicament.

| Structure (SMILES) | protège les animaux traités (activité antiulcéreuse) [1] | DL0 (souris) | protège les animaux traités (activité anti-inflammatoire) [2] |
| --- | --- | --- | --- |
| CCCNCC(O)c1cccc2c1CC(=O)N2 (stereo not shown) [exemple 2, 1,3-dihydro 4-/1-hydroxy 2-(propylamino)éthyl/ 2H-indol-2-one] | 60% | 200 mg/kg |  |
| CC(C)NCC(O)c1cccc2c1CC(=O)N2 (stereo not shown) [exemple 1, 1,3-dihydro 4-/2-(1-méthyléthylamino) 1-hydroxy éthyl/ 2H-indol-2-one] |  | 200 mg/kg | 61% |
| CCNCC(O)c1cccc2c1CC(=O)N2 (stereo not shown) [compound 7, Chlorhydratede 1,3-dugtdri 4-/(1-hydroxy 2-éthyl-amino) éthyl/ 2H-indol-2-one] |  | > 400 mg/kg |  |
| O=C1Cc2c(cccc2C(O)CNCC2CC2)N1 (stereo not shown) [exemple 5, Chlorhydratede 1,3-dihydro 4-/1-hydroxy 2-(cyclo-propylméthylamino) éthyl/ 2H-indol-2-one] |  | 200 mg/kg |  |
| CNCC(O)c1cccc2c1CC(=O)N2 (stereo not shown) [compound 3, 1,3-dihydro 4-(1-hydroxy 2-(méthylamino)éthyl) 2H-indol-2-one] |  | > 400 mg/kg |  |
